Target: ROCK2 protein (Homo sapiens, UniProt O75116)
Assay: Degradation inducing activity of ROCK2 protein in HUVEC cells, Western blotting (Simple Western JESS)
Assay type: cell-based
Set-up: endogenous in cells; host or cells: HUVEC (ATCC CRL-1730)
Details: HUVEC, 24 h; for inhibition at 1 µM: degradation rate at 1 µM; for inhibition at 10 µM: degradation rate at 10 µM
Experimental: In vitro degradation inducing activity of ROCK2 protein of compounds of Examples was evaluated by Western Blotting (WB).
By a test compound, 10 mM DMSO solution was prepared, which was used as a 10 µM test compound solution. Further, the solution was diluted 10-fold with DMSO to prepare a 1 mM solution, which was used as a 1 µM test compound solution.
HUVEC cells (ATCC: CRL-1730, Lot: 70041472) were cultured in F-12K medium supplemented with 10% FBS, 0.1 mg/mL heparin, […] Endothelial Cell Growth Supplement (ECGS, Corning), and 1% Penicillin/Streptomycin. The HUVEC cells seeded in a 24 well plate at 50,000 cells/well/1 mL were cultured for 24 hours, and then 1 µL of DMSO or a test compound solution was added thereto and treatment was performed for 24 hours. Cells were harvested and lysed for 20 minutes on ice using lysis buffer (Cell Signaling Technology, Cat#9803) supplemented with protease inhibitor cocktail (Sigma, Cat#P8340; Roche, Cat#P11873580001), and phosphatase inhibitor cocktail (Sigma, Cat#P5726, P0044). The lysate was sonicated (15 seconds, amplitude 30%, 1 cycle) and then centrifuged at 12500 rpm for 15 minutes at 4°C. The protein concentration was determined by BCA assay kit (Thermo Fisher Scientific, Cat#23225).
The western blotting was performed using Simple Western JESS (protein simple). A cell lysis sample (protein amount; about 1.06 µg) was loaded on a plate of Simple Western JESS, and the expression level of ROCK2 protein was detected using a 12-230 kDa Wes Separation Module (Protein simple, Cat#SM-WO04), an Anti-Rabbit Detection Module for Wes (Protein simple, Cat#DM-001), and a Total Protein Detection Module for Wes (Protein simple, Cat#DM-TP01). As the primary antibody, a material obtained by diluting ROCK2 (D1B1) Rabbit mAb (Cell Signaling Technology, Cat#9029) at 1:10 was used, and as the secondary antibody, a material obtained by diluting HRP-labeled anti-rabbit IgG antibody (Cell Signaling Technology, Cat#7074S) at 1:100 was used. The expression level of the target protein was standardized using the total protein amount loaded as a reference. The standardized expression level data of the control (DMSO) was taken as 100%, and the degradation rate (%) was calculated from the average standardized expression level data of the test compound. All analysis steps, such as data detection and analysis, are fully automated.
With respect to the ROCK2 protein degradation rate of the test compound, the protein degradation rates (%) at the evaluation concentrations were set to A ≥ 75%, 75% > B ≥ 50%, 50% > C ≥ 25%, and D < 25%, and are shown in Table 7.

Chain of ROCK2 protein (O75116 whole entry): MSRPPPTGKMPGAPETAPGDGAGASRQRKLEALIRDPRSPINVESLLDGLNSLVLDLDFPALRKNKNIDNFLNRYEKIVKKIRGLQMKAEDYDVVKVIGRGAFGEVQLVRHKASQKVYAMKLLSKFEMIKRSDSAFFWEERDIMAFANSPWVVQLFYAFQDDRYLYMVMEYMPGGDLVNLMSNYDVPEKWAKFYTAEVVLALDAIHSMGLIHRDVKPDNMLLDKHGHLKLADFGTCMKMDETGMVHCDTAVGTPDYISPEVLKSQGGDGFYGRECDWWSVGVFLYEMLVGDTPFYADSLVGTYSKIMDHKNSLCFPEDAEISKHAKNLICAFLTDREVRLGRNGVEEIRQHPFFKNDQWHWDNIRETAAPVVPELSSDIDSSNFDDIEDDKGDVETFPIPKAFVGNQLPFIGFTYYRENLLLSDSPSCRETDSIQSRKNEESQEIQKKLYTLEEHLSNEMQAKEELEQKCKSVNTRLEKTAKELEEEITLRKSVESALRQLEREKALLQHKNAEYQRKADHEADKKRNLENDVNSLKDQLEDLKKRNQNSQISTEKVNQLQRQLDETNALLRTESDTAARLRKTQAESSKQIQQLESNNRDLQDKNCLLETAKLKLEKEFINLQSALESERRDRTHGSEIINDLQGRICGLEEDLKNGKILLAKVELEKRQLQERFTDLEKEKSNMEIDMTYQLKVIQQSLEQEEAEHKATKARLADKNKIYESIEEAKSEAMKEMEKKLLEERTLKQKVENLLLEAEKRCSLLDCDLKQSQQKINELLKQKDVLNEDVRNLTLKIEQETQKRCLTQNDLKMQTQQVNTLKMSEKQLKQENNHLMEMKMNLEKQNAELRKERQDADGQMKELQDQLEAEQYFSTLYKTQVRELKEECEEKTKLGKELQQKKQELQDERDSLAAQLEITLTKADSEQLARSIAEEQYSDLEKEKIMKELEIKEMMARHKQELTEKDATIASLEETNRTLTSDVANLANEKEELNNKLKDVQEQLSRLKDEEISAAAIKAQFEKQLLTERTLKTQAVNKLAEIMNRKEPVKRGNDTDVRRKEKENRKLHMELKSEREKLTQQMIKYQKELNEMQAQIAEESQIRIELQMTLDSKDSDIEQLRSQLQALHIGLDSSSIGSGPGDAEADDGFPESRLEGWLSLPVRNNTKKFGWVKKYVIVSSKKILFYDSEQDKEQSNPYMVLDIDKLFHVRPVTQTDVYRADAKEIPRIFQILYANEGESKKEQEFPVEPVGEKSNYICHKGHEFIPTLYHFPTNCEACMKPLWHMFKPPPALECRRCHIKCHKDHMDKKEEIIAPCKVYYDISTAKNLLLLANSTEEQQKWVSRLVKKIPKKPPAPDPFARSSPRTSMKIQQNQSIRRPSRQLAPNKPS

| SMILES | inhibition at 1 µM [%] | inhibition at 10 µM [%] |
| --- | --- | --- |
| C[C@@H]1CN(CC(=O)N2CC(C)(C)c3ncc(Cc4ccc(F)cc4)cc32)[C@@H](CN(C)CCOCCOCCOCCOCCN[C@H](C)c2ccc(C(=O)Nc3ccncc3)cc2)CN1 [Example 4, 4-((R)-1-((2R,5R)-1-(2-(6-(4-Fluorobenzyl)-3,3-dimethyl-2,3-dihydro-1H-pyrrolo[3,2-b]pyridin-1-yl)-2-oxoethyl)-5-methylpiperazin-2-yl)-2-methyl-5,8,11,14-tetraoxa-2,17-diazanonadecan-18-yl)-N-(pyridin-4-yl)benzamide] | ≥ 75 | ≥ 75 |
| COC[C@H]1CN[C@H](C)CN1CC(=O)N1CC(C)(C)c2nc(CN(C)CCOCCOCCOCCOCCN[C@H](Cc3cccc(F)c3)C(=O)Nc3ccc(-c4ccncc4)cc3)c(Cc3ccc(F)cc3)cc21 [Example 32, (R)-18-(3-Fluorobenzyl)-1-(6-(4-fluorobenzyl)-1-(2-((2R,5R)-2-(methoxymethyl)-5-methylpiperazin-1-yl)acetyl)-3,3-dimethyl-2,3-dihydro-1H-pyrrolo[3,2-b]pyridin-5-yl)-2-methyl-N-(4-(pyridin-4-yl)phenyl)-5,8,11,14-tetraoxa-2,17-diazanonadecan-19-amide] | < 25 | ≥ 75 |
| COC[C@H]1CN[C@H](C)CN1CC(=O)N1CC(C)(C)c2ncc(Cc3ccccc3OCCOCCOCCOCCOCCOCCOCCN[C@H](Cc3cccc(F)c3)C(=O)Nc3ccc(-c4ccncc4)cc3)cc21 [Example 76, (R)-2-(3-Fluorobenzyl)-23-(2-((1-(2-((2R,5R)-2-(methoxymethyl)-5-methylpiperazin-1-yl)acetyl)-3,3-dimethyl-2,3-dihydro-1H-pyrrolo[3,2-b]pyridin-6-yl)methyl)phenoxy)-N-(4-(pyridin-4-yl)phenyl)-6,9,12,15,18,21-hexaoxa-3-azatricosanamide] | < 25 | 50 to 75 |
| COC[C@H]1CN[C@H](C)CN1CC(=O)N1CC(C)(C)c2ncc(Cc3cccc(OCCOCCOCCOCCOCCN[C@H](C)c4ccc(C(=O)Nc5ccncc5)cc4)c3)cc21 [Example 46, 4-((R)-17-(3-((1-(2-((2R,5R)-2-(Methoxymethyl)-5-methylpiperazin-1-yl)acetyl)-3,3-dimethyl-2,3-dihydro-1H-pyrrolo[3,2-b]pyridin-6-yl)methyl)phenoxy)-6,9,12,15-tetraoxa-3-azaheptadecan-2-yl)-N-(pyridin-4-yl)benzamide] | 25 to 50 | 25 to 50 |
| COC[C@H]1CN[C@H](C)CN1CC(=O)N1CC(C)(C)c2ncc(Cc3cccc(OCCOCCN[C@H](C)c4ccc(C(=O)Nc5ccncc5)cc4)c3)cc21 [Example 43, 4-((R)-1-((2-(2-(3-((1-(2-((2R,5R)-2-(Methoxymethyl)-5-methylpiperazin-1-yl)acetyl)-3,3-dimethyl-2,3-dihydro-1H-pyrrolo[3,2-b]pyridin-6-yl)methyl)phenoxy)ethoxy)ethyl)amino)ethyl)-N-(pyridin-4-yl)benzamide] | 25 to 50 | ≥ 75 |
| COC[C@H]1CN[C@H](C)CN1CC(=O)N1CC(C)(C)c2ncc(Cc3ccccc3OCCOCCOCCOCCOCCN[C@H](C)c3ccc(C(=O)Nc4ccncc4)cc3)cc21 [Example 67, 4-((R)-17-(2-((1-(2-((2R,5R)-2-(Methoxymethyl)-5-methylpiperazin-1-yl)acetyl)-3,3-dimethyl-2,3-dihydro-1H-pyrrolo[3,2-b]pyridin-6-yl)methyl)phenoxy)-6,9,12,15-tetraoxa-3-azaheptadecan-2-yl)-N-(pyridin-4-yl)benzamide] | < 25 | 50 to 75 |
| COC[C@H]1CN[C@H](C)CN1CC(=O)N1CC(C)(C)c2ncc(Cc3cccc(OCCOCCOCCOCCOCCN[C@H](Cc4cccc(F)c4)C(=O)Nc4ccc(-c5ccncc5)cc4)c3)cc21 [Example 53, (R)-2-(3-Fluorobenzyl)-17-(3-((1-(2-((2R,5R)-2-(methoxymethyl)-5-methylpiperazin-1-yl)acetyl)-3,3-dimethyl-2,3-dihydro-1H-pyrrolo[3,2-b]pyridin-6-yl)methyl)phenoxy)-N-(4-(pyridin-4-yl)phenyl)-6,9,12,15-tetraoxa-3-azaheptadecanamide] | < 25 | 50 to 75 |
| COC[C@H]1CN[C@H](C)CN1CC(=O)N1CC(C)(C)c2nc(CN(C)CCOCCOCCN[C@H](C)c3ccc(C(=O)Nc4ccncc4)cc3)c(Cc3ccc(F)cc3)cc21 [Example 23, 4-((R)-1-(6-(4-Fluorobenzyl)-1-(2-((2R,5R)-2-(methoxymethyl)-5-methylpiperazin-1-yl)acetyl)-3,3-dimethyl-2,3-dihydro-1H-pyrrolo[3,2-b]pyridin-5-yl)-2-methyl-5,8-dioxa-2,11-diazatridecan-12-yl)-N-(pyridin-4-yl)benzamide] | ≥ 75 | ≥ 75 |
| COC[C@H]1CN[C@H](C)CN1CC(=O)N1CC(C)(C)c2nc(CN(C)CCOCCOCCOCCOCCOCCN[C@H](Cc3cccc(F)c3)C(=O)Nc3ccc(-c4ccncc4)cc3)c(Cc3ccc(F)cc3)cc21 [Example 33, (R)-21-(3-Fluorobenzyl)-1-(6-(4-fluorobenzyl)-1-(2-((2R,5R)-2-(methoxymethyl)-5-methylpiperazin-1-yl)acetyl)-3,3-dimethyl-2,3-dihydro-1H-pyrrolo[3,2-b]pyridin-5-yl)-2-methyl-N-(4-(pyridin-4-yl)phenyl)-5,8,11,14,17-pentaoxa-2,20-diazadocosan-22-amide] | < 25 | ≥ 75 |
| COC[C@H]1CN[C@H](C)CN1CC(=O)N1CC(C)(C)c2ncc(Cc3ccccc3OCCOCCOCCOCCOCCOCCOCCOCCN[C@H](C)c3ccc(C(=O)Nc4ccncc4)cc3)cc21 [Example 70, 4-((R)-26-(2-((1-(2-((2R,5R)-2-(Methoxymethyl)-5-methylpiperazin-1-yl)acetyl)-3,3-dimethyl-2,3-dihydro-1H-pyrrolo[3,2-b]pyridin-6-yl)methyl)phenoxy)-6,9,12,15,18,21,24-heptaoxa-3-azahexacosan-2-yl)-N-(pyridin-4-yl)benzamide] | ≥ 75 | ≥ 75 |
| COC[C@H]1CN[C@H](C)CN1CC(=O)N1CC(C)(C)c2ncc(Cc3ccccc3OCCOCCOCCOCCOCCOCCOCCOCCNC[C@@H](C(=O)Nc3ccc4cnccc4c3)c3ccccc3)cc21 [Example 84, (S)-N-(Isoquinolin-6-yl)-1-(2-((1-(2-((2R,5R)-2-(methoxymethyl)-5-methylpiperazin-1-yl)acetyl)-3,3-dimethyl-2,3-dihydro-1H-pyrrolo[3,2-b]pyridin-6-yl)methyl)phenoxy)-26-phenyl-3,6,9,12,15,18,21-heptaoxa-24-azaheptacosan-27-amide] | 50 to 75 | 25 to 50 |
| COC[C@H]1CN[C@H](C)CN1CC(=O)N1CC(C)(C)c2nc(CN(C)CCOCCOCCN[C@H](Cc3cccc(F)c3)C(=O)Nc3ccc(-c4ccncc4)cc3)c(Cc3ccc(F)cc3)cc21 [Example 30, (R)-12-(3-Fluorobenzyl)-1-(6-(4-fluorobenzyl)-1-(2-((2R,5R)-2-(methoxymethyl)-5-methylpiperazin-1-yl)acetyl)-3,3-dimethyl-2,3-dihydro-1H-pyrrolo[3,2-b]pyridin-5-yl)-2-methyl-N-(4-(pyridin-4-yl)phenyl)-5,8-dioxa-2,11-diazatridecan-13-amide] | < 25 | < 25 |
| C[C@@H]1CN(CC(=O)N2CC(C)(C)c3ncc(Cc4ccc(F)cc4)cc32)[C@@H](CN(C)CCOCCOCCOCCOCCOCCOCCN[C@H](Cc2cccc(F)c2)C(=O)Nc2ccc(-c3ccncc3)cc2)CN1 [Example 13, (R)-24-(3-Fluorobenzyl)-1-((2R,5R)-1-(2-(6-(4-fluorobenzyl)-3,3-dimethyl-2,3-dihydro-1H-pyrrolo[3,2-b]pyridin-1-yl)-2-oxoethyl)-5-methylpiperazin-2-yl)-2-methyl-N-(4-(pyridin-4-yl)phenyl)-5,8,11,14,17,20-hexaoxa-2,23-diazapentacosan-25-amide] | < 25 | < 25 |

— patent EP4578856A1, “HETEROCYCLIC COMPOUND” (Ubience Inc., priority 2022, dated 2024)
